Where a name gives a salt, the structure may show the parent alone.
Target: T1, mGlyT-1b (Mus musculus, UniProt P28571)
T1 construct: host or cells: Flp-in-CHO
T1 sequence (P28571 1-651 isoform P28571-2): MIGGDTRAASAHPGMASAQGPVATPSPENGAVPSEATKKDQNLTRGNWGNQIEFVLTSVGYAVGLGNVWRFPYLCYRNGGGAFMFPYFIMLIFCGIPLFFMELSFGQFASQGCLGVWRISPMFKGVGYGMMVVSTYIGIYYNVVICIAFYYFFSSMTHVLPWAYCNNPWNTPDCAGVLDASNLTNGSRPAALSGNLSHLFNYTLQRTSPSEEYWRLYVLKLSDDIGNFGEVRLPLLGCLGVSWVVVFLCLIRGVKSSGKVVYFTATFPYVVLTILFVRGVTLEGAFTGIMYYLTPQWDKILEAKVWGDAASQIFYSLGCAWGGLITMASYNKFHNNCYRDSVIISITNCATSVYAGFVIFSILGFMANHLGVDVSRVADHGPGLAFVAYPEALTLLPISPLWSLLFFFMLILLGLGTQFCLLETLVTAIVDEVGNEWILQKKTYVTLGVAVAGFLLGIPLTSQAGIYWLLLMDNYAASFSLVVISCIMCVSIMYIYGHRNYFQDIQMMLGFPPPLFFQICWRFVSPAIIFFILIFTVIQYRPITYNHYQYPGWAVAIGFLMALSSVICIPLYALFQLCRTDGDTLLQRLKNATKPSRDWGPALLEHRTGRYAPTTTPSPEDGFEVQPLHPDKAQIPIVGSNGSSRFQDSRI
Test: Glycine uptake inhibition assay (mGlyT-1b)
Type: cell-based
Settings: [3H]-glycine uptake, Flp-in-CHO cells stably transfected with mGlyT1b cDNA, 20 min preincubation at 22° C.
Experimental: Nutrient mixture F-12 (Gibco Life-technologies), fetal bovine serum (FBS) 5%, (Gibco life technologies), Penicillin/Streptomycin 1% (Gibco life technologies), Hygromycin 0.6 mg/ml (Gibco life technologies), Glutamine 1 mM Gibco life technologies)
150 mM NaCl, 10 mM Hepes-Tris, pH 7.4, 1 mM CaCl2, 2.5 mM KCl, 2.5 mM MgSO4, 10 mM (+) D-glucose.
Flp-in™-CHO (Invitrogen Cat n° R758-07) cells stably transfected with mGlyT1b cDNA.
Glycine Uptake Inhibition Assay (mGlyT-1b)
On day 1 mammalian cells, (Flp-in™-CHO), transfected with mGlyT-1b cDNA, were plated at the density of 40,000 cells/well in complete F-12 medium, without hygromycin in 96-well culture plates. On day 2, the medium was aspirated and the cells were washed twice with uptake buffer (UB). The cells were then incubated for 20 min at 22° C. with either (i) no potential competitor, (ii) 10 mM non-radioactive glycine, (iii) a concentration of a potential inhibitor. A range of concentrations of the potential inhibitor was used to generate data for calculating the concentration of inhibitor resulting in 50% of the effect (e.g. IC50, the concentration of the competitor inhibiting glycine uptake of 50%). A solution was then immediately added containing [^3H]-glycine 60 nM (11-16 Ci/mmol) and 25 μM non-radioactive glycine. The plates were incubated with gentle shaking and the reaction was stopped by aspiration of the mixture and washing (three times) with ice-cold UB. The cells were lysed with scintillation liquid, shaken 3 hours and the radioactivity in the cells was counted using a scintillation counter.

SMILES	IC50
CO[C@@H]1CN(C)C[C@](NC(=O)c2ccc(C(F)(F)F)cc2C2CC2)(c2ccccc2)C1 (racemic) [Example 76, 2-Cyclopropyl-N-((3RS,5SR)-5-methoxy-1-methyl-3-phenyl-piperidin-3-yl)-4-trifluoromethyl-benzamide]	92.9 nM
COc1cc(C(F)(F)F)cc(SC)c1C(=O)N[C@@]1(c2ccccc2)CC[C@H](C)N(C)C1 (single isomer, unassigned) [Example 120, N-((3R,6S) or (3S,6R)-1,6-Dimethyl-3-phenyl-piperidin-3-yl)-2-methoxy-6-methylsulfanyl-4-trifluoromethyl-benzamide]	12.7 nM
COc1cc(C(F)(F)F)cc(SC)c1C(=O)N[C@@]1(c2ccccc2)C[C@H](OC)CN(C)C1 (stereo in doubt) [Example 75, 2-Methoxy-N-((3RS,5SR)-5-methoxy-1-methyl-3-phenyl-piperidin-3-yl)-6-methylsulfanyl-4-trifluoromethyl-benzamide]	53.8 nM
COc1cc(C(F)(F)F)cc(SC)c1C(=O)N[C@]1(c2ccccc2)CC[C@H](C)N(C)C1 (single isomer, unassigned) [Example 117, N-((3S,6S) or (3R,6R)-1,6-Dimethyl-3-phenyl-piperidin-3-yl)-2-methoxy-6-methylsulfanyl-4-trifluoromethyl-benzamide]	32.4 nM
COc1cc(C(F)(F)F)cc(SC)c1C(=O)NC1(c2ccc(F)cc2Cl)CCCN(C)C1 (racemic) [Example 88, rac-N-[3-(2-Chloro-4-fluoro-phenyl)-1-methyl-piperidin-3-yl]-2-methoxy-6-methylsulfanyl-4-trifluoromethyl-benzamide]	146 nM
CCc1cc(C(F)(F)F)ccc1C(=O)NC1(c2cccnc2)CCCN(C)C1 (racemic) [Example 74, rac-2-Ethyl-N-(1-methyl-1,4,5,6-tetrahydro-2H-[3,3′]bipyridinyl-3-yl)-4-trifluoromethyl-benzamide hydrochloride]	123 nM
CCc1cc(C(F)(F)F)ccc1C(=O)NC1(c2ccccc2)CCCN(C)C1 (racemic) [Example 4, rac-2-Ethyl-N-(1-methyl-3-phenyl-piperidin-3-yl)-4-trifluoromethyl-benzamide]	26.4 nM
COc1cc(C(F)(F)F)cc(C(F)(F)F)c1C(=O)NC1(c2ccc(F)cc2)CCCN(C)C1 (racemic) [Example 26, rac-N-[3-(4-Fluoro-phenyl)-1-methyl-piperidin-3-yl]-2-methoxy-4,6-bis-trifluoromethyl-benzamide]	59.3 nM
COc1cc(C(F)(F)F)cc(SC)c1C(=O)NC1(c2ccc(F)c(C)c2)CCCN(C)C1 (racemic) [Example 97, rac-N-[3-(4-Fluoro-3-methyl-phenyl)-1-methyl-piperidin-3-yl]-2-methoxy-6-methylsulfanyl-4-trifluoromethyl-benzamide]	185 nM
CN1CCCC(NC(=O)c2ccc(C(F)(F)F)cc2C2CC2)(c2ccccc2)C1 (racemic) [Example 13, rac-2-Cyclopropyl-N-(1-methyl-3-phenyl-piperidin-3-yl)-4-trifluoromethyl-benzamide]	13 nM
COc1cc(C(F)(F)F)cc(SC)c1C(=O)N[C@]1(c2ccccc2)C[C@@H](OC)CN(C)C1 (stereo in doubt) [Example 109, 2-Methoxy-N-((3S,5R) or (3R,5S)-5-methoxy-1-methyl-3-phenyl-piperidin-3-yl)-6-methylsulfanyl-4-trifluoromethyl-benzamide]	151 nM
CCc1cc(C(F)(F)F)ccc1C(=O)NC1(c2ccncc2)CCCN(C)C1 (racemic) [Example 72, rac-2-Ethyl-N-(1-methyl-1,4,5,6-tetrahydro-2H-[3,4′]bipyridinyl-3-yl)-4-trifluoromethyl-benzamide hydrochloride]	36.9 nM

The remaining lines, values ahead:

IC50	SMILES
54.4 nM	COc1cc(C(F)(F)F)cc(SC)c1C(=O)NC1(c2cccnc2)CCCN(C)C1 (racemic) [Example 73, rac-2-Methoxy-6-methylsulfanyl-N-(1-methyl-1,4,5,6-tetrahydro-2H-[3,3′]bipyridinyl-3-yl)-4-trifluoromethyl-benzamide]
182 nM	COc1cc(C(F)(F)F)cc(SC)c1C(=O)N[C@]1(c2ccccc2)CCCN(C)C1 (stereo in doubt) [Example 37, 2-Methoxy-N-((S)-1-methyl-3-phenyl-piperidin-3-yl)-6-methylsulfanyl-4-trifluoromethyl-benzamide hydrochloride]
175 nM	COc1cc(C(F)(F)F)cc(SC)c1C(=O)NC1(c2ccccc2F)CCCN(C)C1 (racemic) [Example 68, rac-N-[3-(2-Fluoro-phenyl)-1-methyl-piperidin-3-yl]-2-methoxy-6-methylsulfanyl-4-trifluoromethyl-benzamide]
68.2 nM	COc1cc(C(F)(F)F)cc(SC)c1C(=O)NC1(c2cccc(C)c2)CCCN(C)C1 (racemic) [Example 96, rac-2-Methoxy-6-methylsulfanyl-N-(1-methyl-3-m-tolyl-piperidin-3-yl)-4-trifluoromethyl-benzamide]
31.2 nM	COc1cc(C(F)(F)F)cc(SC)c1C(=O)N[C@@]1(c2ccccc2)C[C@H](O)CN(C)C1 (racemic) [Example 107, N-((3R,5S) or (3S,5R)-5-Hydroxy-1-methyl-3-phenyl-piperidin-3-yl)-2-methoxy-6-methylsulfanyl-4-trifluoromethyl-benzamide hydrochloride]
126 nM	COc1cc(C(F)(F)F)cc(OC)c1C(=O)N[C@@]1(c2ccccc2)CCCN(C)C1 (racemic) [Example 128, 2,6-Dimethoxy-N-(R or (S)-1-methyl-3-phenyl-piperidin-3-yl)-4-trifluoromethyl-benzamide]
10.1 nM	COc1cc(C(F)(F)F)cc(SC)c1C(=O)N[C@@]1(c2ccccc2)CCCN(C)C1 (stereo in doubt) [Example 38, 2-Methoxy-N-((R)-1-methyl-3-phenyl-piperidin-3-yl)-6-methylsulfanyl-4-trifluoromethyl-benzamide hydrochloride]
57.3 nM	COc1cc(C(F)(F)F)cc(SC)c1C(=O)NC1(c2ccccc2F)CCCN(C)C1 (single isomer, unassigned) [Example 111, N-[(R or S)-3-(2-Fluoro-phenyl)-1-methyl-piperidin-3-yl]-2-methoxy-6-methylsulfanyl-4-trifluoromethyl-benzamide]
31.3 nM	COc1cc(C(F)(F)F)cc(SC)c1C(=O)N[C@@]1(c2ccccc2)C[C@H](C)CN(C)C1 (mixture of isomers) [Example 85, N-((3R,5SR)-1,5-Dimethyl-3-phenyl-piperidin-3-yl)-2-methoxy-6-methylsulfanyl-4-trifluoromethyl-benzamide hydrochloride]
173 nM	COc1cc(C(F)(F)F)cc(SC)c1C(=O)NC1(c2ccccc2)CCCN(C(C)(C)C)C1 (racemic) [Example 104, rac-N-(1-tert-Butyl-3-phenyl-piperidin-3-yl)-2-methoxy-6-methylsulfanyl-4-trifluoromethyl-benzamide]
